The target in assay [1] is T1, AII receptors (Cavia porcellus, UniProt Q9WV26).
T1 construct: the source of cell surface membranes is the guinea pig adrenal gland; from tissue; host or cells: guinea pig adrenal gland, cell surface membrane fraction
T1 sequence (Q9WV26 1-359): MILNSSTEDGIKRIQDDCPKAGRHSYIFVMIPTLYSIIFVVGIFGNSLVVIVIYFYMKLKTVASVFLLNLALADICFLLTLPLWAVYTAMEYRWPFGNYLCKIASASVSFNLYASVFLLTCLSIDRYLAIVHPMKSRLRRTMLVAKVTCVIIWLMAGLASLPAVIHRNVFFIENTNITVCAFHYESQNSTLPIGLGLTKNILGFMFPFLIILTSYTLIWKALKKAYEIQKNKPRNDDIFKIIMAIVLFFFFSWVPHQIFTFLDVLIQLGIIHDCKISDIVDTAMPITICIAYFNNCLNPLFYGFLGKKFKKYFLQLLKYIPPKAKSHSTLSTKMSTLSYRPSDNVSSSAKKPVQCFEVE
Put plainly: Test A: displacement of radiolabelled AII binding to guinea pig adrenal gland cell surface membranes. The settings on record: read-out: IC50 (concentration for 50% displacement of radiolabelled AII binding). The method, then: Test A: This in vitro procedure involves the incubation of the test compound initially at a concentration of 100 micromolar (or less) in a buffered mixture containing fixed concentrations of radiolabelled AII and a cell surface membrane fraction prepared from a suitable angiotensin target tissue. In this test, the source of cell surface membranes is the guinea pig adrenal gland which is well known to respond to AII. Interaction of the radiolabelled AII with its receptors (assessed as radiolabel bound to the particulate membrane fraction following removal of unbound radiolabel by a rapid filtration procedure such as is standard in such studies) is antagonized by compounds which also bind to the membrane receptor sites and the degree of antagonism (observed in the test as displacement of membrane-bound radioactivity) is determined readily by comparing the receptor-bound radioactivity in the presence of the test compound at the specified test concentration with a control value determined in the absence of the test compound. Using this procedure compounds showing at least 50% displacement of radiolabelled AII binding at a concentration of 10^-4 M are retested at lower concentrations to determine their potency. […]

Assay [2] deals with angiotensin II-induced pressor responses. The assay is described as follows: Test C: antagonism of angiotensin II-induced pressor responses in rats. It is filed as in vivo. Conditions: iv, rat, i.v. administration. The procedure: Test C: This in vivo test involves using terminally-anaesthetised or conscious rats in which an arterial catheter has been implanted under anaesthesia for the measurement of changes in blood pressure. The AII antagonistic effects of the test compound following oral or parenteral administration, are assessed against angiotensin II-induced pressor responses. To ensure that the effect is specific, the effect of the test compound on vasopressin-induced pressor responses may also be determined in the same preparation.

Take `COC(=O)c1c(OCc2ccc(-c3ccccc3-c3nnn[nH]3)cc2)cc(C)nc1C.Cl` [Example 2, methyl 2,6-dimethyl-4-[(2'-(1H-tetrazol-5-yl)biphenyl-4-yl)methoxy]pyridine-3-carboxylate hydrochloride]: the IC50 in assay [1] was 50 nM. Further, in assay [2], the median effective dose (ED50) (in general, the midpoint of the dose-response relation) was found to be 0.1 mg/kg.

Values taken from US5198439A, “Angiotension II antagonizing pyridine derivatives” (Imperial Chemical Industries PLC, priority 1990, dated 1993).
